How the values were obtained:
[1] = tested on: Human Dermal Fibroblasts (HDF); test: Collagen production assay (hydroxyproline ELISA); assay type: cell-based; conditions: 5, 1 or 0.1 μg/ml, 96 h, compared with untreated control, FIG. 3
Method: Study Description Hydroxyproline in tissue preparations is a direct measure of the amount of collagen present. […] Human Hydroxyproline ELISA kit assay is designed to measure hydroxyproline in tissue or peptide compositions.
Human Dermal Fibroblasts (HDF Sigma 10605a) were seeded in 24 well plates at 50,000 cells per well in DMEM containing 10% fetal calf serum (FCS), 1% Pen/strep, 1% L-glutamine and allowed to adhere for 24 h.
Following the initial 24 h incubation the cells were incubated with 5 μg/ml, 1 μg/ml or 0.1 μg/ml synthetic peptide for 96 h respectively.
After treatment, the cell supernatant was removed and centrifuged. 50 μl of each supernatant was assayed using the […] Human Hydroxyproline ELISA kit. All steps were carried out according to the manufacturer's instructions.

Human skeletal myoblasts = test: Glucose uptake (2-DG), skeletal myoblasts; assay type: cell-based; conditions: 3 h, compared with untreated control
Method: Glucose uptake in skeletal muscle cells was measured using 2-deoxyglucose (2-DG). 2-DG is taken up by glucose transporters and metabolized to 2-DG-6-phosphate (2-DG6P). The amount of accumulated non-metabolized 2-DG6P is proportional to glucose uptake by cells.
Human skeletal myoblasts (Sigma 150-05a) were seeded in a 96 well plate at 10,000 cells per well in Skeletal Muscle Differentiation medium and allowed to differentiated for 72 h prior to experimentation.
The differentiated cells were serum starved for 24 h prior to stimulation with insulin or synthetic peptides. After starvation, the serum free media was removed, cells rinsed with Phosphate Buffered Saline (PBS) and media replaced with 100 μl of Krebs-Ringer-Phosphate-HEPES (KRPH) and incubated for 1 h.
The cells were then stimulated with 100 nM insulin for 30 minutes or 5 μg/ml, 0.5 μg/ml or 0.05 μg/ml synthetic peptide for 3 h respectively.
Following stimulation, the cells were incubated with 10 μl/well of 2-DG solution for 40 min and glucose uptake was measured using the ‘PrismColor Glucose Uptake Assay Kit’ (Molecutools), all steps were carried out according to the manufacturer's instructions. The experiment was repeated using HACAT cells.

GLUT-4 = GLUT-4 translocation (membrane fraction ELISA); assay type: cell-based, Human; conditions: HSKMC cells, 2 hrs, FIG. 8
Method: […] Upon completion of treatment, cell membrane proteins were collected. Briefly, cells were harvested from the wells with a cell scraper and centrifuged at 300×g for 5 min. The cell pellet was washed with 300 ul of cell wash solution and then re centrifuged at 300×g for 5 min. The supernatant was discarded and the cells resuspended in 1.5 ml of cell wash solution and transferred to a 2 ml centrifuge tube. The cells were then centrifuged at 300×g for 5 min and the supernatant discarded. 150 ul of permeabilization buffer was added to the cell pellet and vortexed briefly to obtain a homogenous cell suspension. The suspension was then incubated at 4° C. for 10 min with constant mixing. […] The supernatant containing solubilized membrane and membrane associated proteins fractions was transferred to a new tube and stored at −80° C. until ready for assessment.
GLUT-4 was assessed in the cell membrane fractions using a sandwich ELISA from LSBio. […] 50 ul of stop solution was added to each well and the optical density of the sample was determined using a microplate reader set to 450 nm. GLUT-4 concentration in the samples was calculated off the standard curve after generating a four-parameter logistic (4-PL) curve fit. Sample concentration read of the curve was then adjusted by multiplying the results by the dilution factor.

Body weight of KKAY mice = assay type: in vivo, mouse; conditions: 100 μM/kg subcutaneous injection, 13 days of treatment
Method: • Species—KK.Cg-Ay/J (KKAY mouse) • Source—Jackson Laboratories • Age—12 weeks of age • Gender—Male • Randomization—Based on baseline fasting glucose Housing and Feeding: • Acclimation—Not less than five days • Housing • Mice will be housed on a 12 hr light/dark cycle • No more than 4 mice per cage depending on size • Ventilated cage rack system • Diet—Standard rodent chow and water ad libitum Design: • Route of administration:—Subcutaneous injection • Dose Volume(s)—10 mL/kg • Dose Levels—Test articles: 100 μM/kg, Metformin: 250 mg/kg • Number per group—10 • Total number of animals—30

Sequence: WKDEAGKPLVK [SEQ ID NO. 1]
- collagen production [1]: increase
- glucose uptake (Human skeletal myoblasts; 0.5 μg/ml, FIG. 6): increase
- glucose uptake (Human skeletal myoblasts; 5 μg/ml, FIG. 7): increase
- GLUT4 translocation (GLUT-4; 0.05 ug/ml): increase
- GLUT4 translocation (GLUT-4; 5 ug/ml): increase
- body weight relative to the untreated group (Body weight of KKAY mice): reduced body weight
- increase in body weight (Body weight of KKAY mice): did not cause an increase

Source: patent US10729636B2, “Compositions comprising peptide [sequence]” (NURITAS LIMITED, priority 2016, dated 2020)
